Data on one substance can be found in patent US6623933B1 (priority 1999, dated 2003).

“And” between values parts separate entries of the source, which are not always exact repeats. Identical values can stand only once.

Format in all cases: cell-based
One assay has as its target NR1100/NR2A (Rattus norvegicus, UniProt P35439+Q00959). The experiment in a line: NMDA-induced currents of NR1 splice variants, Xenopus oocytes, Example 4. Also on record: expressed in transfected cells; host or cells: Xenopus oocytes co-injected with NR1100 and NR2A cRNA. Particulars: NR1100/2A; 100 μM PS; 200 μM NMDA+10 μM glycine. Here is the method: (§1) Overnight cultures (500 ml) of transformed bacterial cells were prepared in order to grow sufficient quantities for maxiprep isolation of the plasmid CDNA. Maxipreps were done using a Sorvall RC-5B ultracentrifuge, Qiagen columns and cDNA was quantitated with spectrophotometry (OD260 and OD260/ OD280 ratio). The resulting plasmid cDNA was linearized by digestion with an appropriate restriction enzyme that cleaves distal to the cDNA insert (XhoI for NR2A or NotI for NR1100, NR1000, NR1111, NR1011, NR1101, NR1001). […] The samples were stored at −20° C. until use.
(§2) In vitro transcription was performed using the Ambion mMessage mMachine kit with T7 (NR1100, NR1000, NR1111, NR1011, NR1101, NR1001) RNA polymerase. The reaction was assembled on ice and allowed to incubate at 37° C. for 1-2 hr. The resulting mRNA was precipitated (reaction termination) using lithium chloride/5 mM EDTA solution and dissolved in RNase-free H2O. The concentration (OD260) and OD260/OD280 ratio (should be more than 1.5) was determined by spectrophotometer. The yield of mRNA was generally 15-30 μg. mRNA was stored at −80° C. until use.
(§3) Intracellular recording microelectrodes were fabricated from 100 μl borosilicate glass disposable micropipettes using a 2-step protocol on a standard horizontal Flaming-Brown micropipette puller.

For another assay, the target named is NR1000/NR2A (Rattus norvegicus, UniProt P35439+Q00959). The description is as above. Also on record: expressed in transfected cells; host or cells: Xenopus oocytes injected with NR1000 and NR2A mRNA. The following applies: NR1000/2A; 100 μM PS; 200 μM NMDA+10 μM glycine. The method, then:
as §1, §2, §3

In a further assay the target is T1, NR1111/NR2B (Rattus norvegicus, UniProt P35439+Q00960).
T1 construct: expressed in transfected cells; host or cells: Xenopus oocytes
T1 sequence (Q00960 27-1482, other chains not shown): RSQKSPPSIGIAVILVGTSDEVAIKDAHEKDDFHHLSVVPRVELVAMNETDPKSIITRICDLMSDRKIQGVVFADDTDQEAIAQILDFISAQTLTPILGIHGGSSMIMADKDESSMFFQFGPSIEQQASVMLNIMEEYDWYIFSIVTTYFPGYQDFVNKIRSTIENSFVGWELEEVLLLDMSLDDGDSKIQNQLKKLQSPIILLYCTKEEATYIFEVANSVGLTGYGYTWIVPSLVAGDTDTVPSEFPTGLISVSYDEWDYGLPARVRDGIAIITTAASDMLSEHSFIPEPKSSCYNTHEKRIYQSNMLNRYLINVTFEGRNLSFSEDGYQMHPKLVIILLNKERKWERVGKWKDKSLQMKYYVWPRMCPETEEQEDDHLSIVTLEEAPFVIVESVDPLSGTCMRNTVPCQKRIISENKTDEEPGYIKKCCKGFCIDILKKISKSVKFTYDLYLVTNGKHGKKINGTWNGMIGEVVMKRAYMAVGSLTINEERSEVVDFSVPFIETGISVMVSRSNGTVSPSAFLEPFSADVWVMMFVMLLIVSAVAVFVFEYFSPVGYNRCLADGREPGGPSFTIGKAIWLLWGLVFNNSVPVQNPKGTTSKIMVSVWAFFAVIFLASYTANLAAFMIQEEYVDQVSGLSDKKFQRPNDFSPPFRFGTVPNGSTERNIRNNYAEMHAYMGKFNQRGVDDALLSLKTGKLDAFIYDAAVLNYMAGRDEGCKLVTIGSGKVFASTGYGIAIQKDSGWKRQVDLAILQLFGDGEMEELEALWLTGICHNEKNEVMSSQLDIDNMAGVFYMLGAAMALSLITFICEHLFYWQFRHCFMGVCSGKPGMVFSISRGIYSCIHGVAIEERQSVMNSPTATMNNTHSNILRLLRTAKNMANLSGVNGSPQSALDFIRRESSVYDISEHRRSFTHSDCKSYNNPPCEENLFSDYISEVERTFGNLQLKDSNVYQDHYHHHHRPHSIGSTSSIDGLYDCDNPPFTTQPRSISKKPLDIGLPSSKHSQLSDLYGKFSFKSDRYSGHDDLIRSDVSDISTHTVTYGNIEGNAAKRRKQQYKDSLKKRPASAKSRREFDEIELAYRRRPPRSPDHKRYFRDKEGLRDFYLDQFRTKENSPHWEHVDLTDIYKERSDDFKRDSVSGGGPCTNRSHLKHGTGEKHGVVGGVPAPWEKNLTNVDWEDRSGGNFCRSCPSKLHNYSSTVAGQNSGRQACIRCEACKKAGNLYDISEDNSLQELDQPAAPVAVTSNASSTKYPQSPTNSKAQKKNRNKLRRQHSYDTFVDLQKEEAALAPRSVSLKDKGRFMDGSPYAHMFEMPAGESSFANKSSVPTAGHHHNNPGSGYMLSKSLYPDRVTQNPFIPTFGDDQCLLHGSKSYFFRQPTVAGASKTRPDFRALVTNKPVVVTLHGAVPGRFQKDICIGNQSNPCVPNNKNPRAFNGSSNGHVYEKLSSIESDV
The assay can be described thus: NMDA receptor currents in Ba-Ringer, Xenopus oocytes, Example 3.

A further assay has as its target NR1001/NR2A (Rattus norvegicus, UniProt P35439+Q00959). The assay can be described thus: NMDA-induced currents of NR1 splice variants, Xenopus oocytes, Example 4. More on the design: expressed in transfected cells; host or cells: Xenopus oocytes injected with NR1001 and NR2A mRNA. Particulars: NR1001/2A; 100 μM PS; 200 μM NMDA+10 μM glycine. The method, then: as §1, §2, §3

Another assay has as its target T2, NR1/NR2A (Rattus norvegicus, UniProt P35439+Q00959).
T2 construct: expressed in transfected cells; host or cells: Xenopus oocytes injected with mRNA
The experiment in a line: NMDA-induced membrane currents, Xenopus oocytes, Example 7.

Chain of NR1001/NR2A (Q00959 23-1464, other chains not shown): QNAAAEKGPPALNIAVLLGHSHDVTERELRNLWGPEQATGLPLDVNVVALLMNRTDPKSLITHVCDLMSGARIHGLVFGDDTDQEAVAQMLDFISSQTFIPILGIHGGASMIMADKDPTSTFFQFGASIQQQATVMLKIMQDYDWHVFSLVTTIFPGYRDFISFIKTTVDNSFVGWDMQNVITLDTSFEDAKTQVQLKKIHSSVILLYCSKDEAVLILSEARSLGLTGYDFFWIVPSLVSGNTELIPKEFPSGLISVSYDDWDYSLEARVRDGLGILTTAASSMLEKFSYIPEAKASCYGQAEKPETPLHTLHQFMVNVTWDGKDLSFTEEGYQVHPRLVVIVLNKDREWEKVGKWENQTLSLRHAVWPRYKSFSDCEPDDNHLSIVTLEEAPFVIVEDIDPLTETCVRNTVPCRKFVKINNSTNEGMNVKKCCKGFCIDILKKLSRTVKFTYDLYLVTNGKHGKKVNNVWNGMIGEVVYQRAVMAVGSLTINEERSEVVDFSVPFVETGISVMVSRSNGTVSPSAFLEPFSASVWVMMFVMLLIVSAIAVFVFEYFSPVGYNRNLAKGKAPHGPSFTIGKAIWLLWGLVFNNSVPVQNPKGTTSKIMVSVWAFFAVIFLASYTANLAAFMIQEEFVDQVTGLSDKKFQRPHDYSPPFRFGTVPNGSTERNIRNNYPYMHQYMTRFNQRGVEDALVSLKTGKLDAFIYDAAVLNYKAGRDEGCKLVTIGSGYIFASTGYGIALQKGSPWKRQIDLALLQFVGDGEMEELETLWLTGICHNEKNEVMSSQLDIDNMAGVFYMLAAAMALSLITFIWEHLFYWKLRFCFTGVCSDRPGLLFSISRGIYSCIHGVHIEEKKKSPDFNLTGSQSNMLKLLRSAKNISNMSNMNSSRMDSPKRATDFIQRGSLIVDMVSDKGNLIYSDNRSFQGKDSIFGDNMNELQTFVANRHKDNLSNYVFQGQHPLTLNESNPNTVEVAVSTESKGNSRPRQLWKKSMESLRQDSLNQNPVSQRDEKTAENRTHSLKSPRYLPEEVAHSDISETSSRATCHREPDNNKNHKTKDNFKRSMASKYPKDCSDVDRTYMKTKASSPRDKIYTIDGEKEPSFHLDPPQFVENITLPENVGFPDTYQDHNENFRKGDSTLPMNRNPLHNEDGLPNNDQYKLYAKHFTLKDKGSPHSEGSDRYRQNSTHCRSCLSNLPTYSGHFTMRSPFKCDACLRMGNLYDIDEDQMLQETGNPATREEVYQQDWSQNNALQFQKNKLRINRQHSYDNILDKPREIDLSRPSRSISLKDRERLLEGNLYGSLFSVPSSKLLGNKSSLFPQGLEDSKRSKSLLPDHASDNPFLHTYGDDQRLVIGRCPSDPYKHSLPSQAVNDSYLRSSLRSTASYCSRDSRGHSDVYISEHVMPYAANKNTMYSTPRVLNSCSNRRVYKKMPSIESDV
T2 sequence (Q00959 23-1464, other chains not shown): as above
Method for NR1/NR2A: Plasmids were linearized with appropriate restriction enzyme prior to in vitro transcription using the Message Machine kit (Ambion, Inc., Austin, Tex.).
Oocytes were injected with 50 nL of RNA solutions using an electronic microinjector (Drummond Inc., Broomall, Pa.). […] The injected oocytes were used for experiments following 1-5 days of incubation in Barth's solution at 18-20° C.
The microelectrodes were fabricated with a programmed puller (Sutter Instrument Co., Calif.) from borosilicate glass capillaries and were filled with 3 M KCl solution. The resistance of filled microelectrodes was in the range of 1-3 MΩ. […] If not mentioned otherwise, during data acquisition oocytes were clamped at a holding potential of −70 mV. The membrane current was filtered at 500 Hz and sampled at 100 Hz. Drugs were applied using a gravity driven external perfusion system. The working ,volume of the recording chamber was 30 μl and the rate of the perfusion was 50 μl/sec. The drug application lasted 10 sec and was followed by a 60 sec wash. The data acquisition and external perfusion control were done using the SuperScopeII software package (GW Instruments, Mass.). […] Peak or steady-state current measurements were normalized and expressed as a fraction of the peak or steady-state control current measurements, which were performed before and after application of every single consentration of agonist or steroid. […]

On to pregnenolone sulfate [PS], for which the “maximum relative current (MRC)” value on NR1100/NR2A was 1.73; at NR1000/NR2A, 1.29; at NR1001/NR2A, 1.73 and 1.72. For the same substance, at NR1111/NR2B, the “PS Emax” value was found to be 1.20 ± 0.10. Besides, the “PS nHill” value at NR1111/NR2B is 1.52 ± 0.10. The “potentiation of NMDA responsive membrane current” value on NR1/NR2A (100 μM PS, 80 μM NMDA, 10 μM glycine) is on record as 59±4%. Besides, the maximum potentiation at NR1/NR2A (PS 0.5 to 200 μM) is recorded as 67±7%.
